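Cells were grown in 96-well plates and exposed to each compound for 48 hours at five concentrations; endpoints were interpolated linearly between bracketing concentrations, or set to the highest concentration if not reached. Here, GI50 denotes the concentration required for 50% inhibition of growth. At the TGI there is no net growth.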

Holding throughout (assay): NCI tumour cell line growth inhibition, 48 h
For assay [1], the system named is HCT-116 colon.
In assay [2] the test system is DU-145 prostate.
Assay [3] has as its system COLO 205 colon.
For assay [4], the system named is NCI-H23 lung.
Assay [5] deals with OVCAR-3 ovarian.
Assay [6] relates to MCF7 breast.
Assay [7] relates to MDA-MB-231 breast.
Assay [8] has as its system EKVX NSCLC.
Assay [9] has as its system RPMI-8226 leukemia.
Assay [10] deals with OVCAR-8 ovarian.

Turning to `Cc1cc(O)c(-c2ccc([C@@H](C)CN(C)C)cc2)c2c1[nH]c(=O)c1sccc12`, the GI50 was 0.406 µM in assay [1]; 0.528 µM in [2]; 2.18 µM in [3]; 1.06 µM in assay [4]; 0.613 µM in assay [5]; 0.103 µM in assay [6]. Besides, the GI50 is 0.608 µM in [7], 0.585 µM in [8], 0.427 µM in [9] and 0.983 µM in assay [10]. The TGI in [1] amounted to 8.87 µM; in assay [2], 53.3 µM; in assay [3], 5.2 µM; in assay [4], 6.41 µM; in assay [5], 6.17 µM; in assay [6] it was 3.14 µM. Moreover, the TGI in [7] came out at 28.6 µM; in assay [8], 6.23 µM; in [9] it was 2.74 µM; in assay [10], 34.9 µM.
Turning to `O=C(/C=C/C12c3ccccc3C(c3ccccc31)C1C(=O)NC(=O)C12)c1ccccc1` (centres undefined), the GI50 in assay [1] was 1.35 µM; in assay [2] it was 1.64 µM; in assay [3], 2.05 µM; in assay [4] it was 1.79 µM; in [5], 1.65 µM; in [6], 1.45 µM. In addition, the GI50 in [7] was 2.96 µM; in assay [8], 1.75 µM; in assay [9], 1.51 µM; in [10], 1.72 µM. Also, the TGI in assay [1] came to 2.89 µM; in assay [2] it was 3.51 µM; in assay [3], 4.03 µM; in [4], 4.01 µM; in assay [5] it was 3.37 µM; in [6] it was 7.6 µM. Moreover, the TGI in assay [7] worked out at 13.1 µM; in assay [8] it was 4.39 µM; in assay [9], 4.1 µM; in assay [10], 5.1 µM.
Consider `N#CC1=C(N)NC(=O)NC12Nc1ccccc1N2`, for which the GI50 in [1], in assay [2], in assay [3], in [4], in assay [5] and in assay [6] was over 100 µM each time. The GI50 in [7], in assay [8], in assay [9] and in assay [10] was over 100 µM throughout. The TGI in assay [1], in assay [2], in assay [3], in assay [4], in assay [5] and in assay [6] was over 100 µM in each case. For the same compound, the TGI in [7], in assay [8], in [9] and in [10] was over 100 µM throughout.
For the compound `O=c1[nH]c(=O)n(C2CC(O)C(CO)O2)cc1C(F)(F)F` (centres undefined), the GI50 in assay [1] was 1.7 µM; in assay [2], 2.85 µM; in assay [3] it was 25 µM; in assay [4], 1.95 µM; in [5] it was over 77.4 µM; in [6], 0.038 µM. Besides, the GI50 in [7] is over 100 µM; in assay [8], over 54.1 µM; in assay [9] it was over 20.3 µM; in [10], 5.12 µM. Besides, the TGI in assay [1], in assay [2], in assay [3], in assay [4], in assay [5] and in assay [7] was over 100 µM each time. Further, the TGI in [8], in assay [9] and in [10] was over 100 µM in each case.
On to `CN(C)CCCNc1nc2ccccc2c2[nH]c3ccccc3c12`, for which the GI50 was 0.222 µM in assay [1]; 0.72 µM in assay [2]; 0.795 µM in assay [3]; 0.752 µM in assay [4]; 0.66 µM in assay [5]; 0.417 µM in [6]. Further, the GI50 in assay [7] is 0.907 µM; in assay [8] it was 1.38 µM; in assay [9], 0.811 µM; in assay [10], 0.917 µM. The TGI in assay [1] came to 1.67 µM; in assay [2], 4.36 µM; in [3] it was 10.1 µM; in assay [4] it was 1.64 µM; in assay [5], 2.23 µM; in [6], 1.81 µM. The TGI in assay [7] was 2.16 µM; in assay [8] it was 4.75 µM; in assay [9], 1.95 µM; in assay [10], 6.65 µM.
`C[C@@H]1CC[C@@]2(NC1)O[C@H]1C[C@H]3[C@@H]4CC[C@H]5C[C@@H](O)CC[C@]5(C)[C@H]4CC[C@]3(C)[C@H]1[C@@H]2C`: the TGI in [1], in [2], in [3], in [4], in assay [5] and in assay [6] was over 100 µM each time. Besides, the TGI in [7] is over 100 µM; in assay [8] it was over 100 µM; in assay [9] it was 85.6 µM; in assay [10], 54.7 µM.
`CCn1c(-c2nonc2N)nc2c(N3CCCC3)nccc21`: the GI50 in assay [1] was 8.47 µM; in [2], 14 µM; in assay [3], 11 µM; in assay [4], 14.9 µM; in [5], 14.7 µM; in assay [6], 5.27 µM. The GI50 is over 18.8 µM in assay [7], over 25 µM in assay [8], 16.5 µM in assay [9] and 9.88 µM in assay [10]. Moreover, the TGI in assay [1], in [2], in assay [3], in assay [4], in assay [5] and in assay [6] was over 25 µM throughout. The TGI in assay [7], in assay [8], in assay [9] and in [10] was over 25 µM each time.
`C[C@]12C[C@H](O)[C@H]3[C@@H](CCC4=CC(=O)CC[C@@]43C)[C@@H]1CC[C@@H]2c1csc(-c2ccccc2)n1`: the TGI in assay [1], in [2], in [3], in [4], in [5] and in [6] was over 100 µM throughout. Moreover, the TGI in assay [7] is over 77.8 µM; in [8], over 100 µM; in assay [9] it was over 100 µM; in assay [10], over 100 µM.

For the origin of these results see PubChem BioAssay (NCI).
